According to patent US10968203B2, “Pyrimidinyl-pyridyloxy-naphthyl compounds and methods of treating IRE1-related diseases and disorders” (Genentech, Inc., priority 2017, dated 2021):
pIC50: −log10 of the molar value. Structures can show the parent of a compound that is named as a salt.

What follows are molecules tested on XBP1s-luc 293 LUC (assay: cellular PD assay, XBP1s-LUC reporter (Example 903)). Conditions: Table 1; read-out: XBP1s-luc 293 LUC (IC50).
Type: cell-based
Method in brief: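 Cellular IRE1α pathway activity was quantified from the luciferase signal of an XBP1-Luc reporter, where the luciferase fusion is in frame and expressed only from the spliced XBP1 transcript.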

SMILES	pIC50
Cc1ccc2c(NS(=O)(=O)CC(C)C)c(F)ccc2c1Oc1ncccc1-c1ccnc(N[C@H]2CCCNC2)n1 [Example 279, (S)—N-(2-Fluoro-6-methyl-5-((3-(2-(piperidin-3-ylamino)pyrimidin-4-yl)pyridin-2-yl)oxy)naphthalen-1-yl)-2-methylpropane-1-sulfonamide]	7.61
Cc1ccc2c(NC(=O)CC3CCCCC3)cccc2c1Oc1ncccc1-c1ccnc(N[C@@H]2CNC[C@H](C)C2)n1 [Example 303, 2-Cyclohexyl-N-(6-methyl-5-((3-(2-(((3S,5R)-5-methylpiperidin-3-yl)amino)pyrimidin-4-yl)pyridin-2-yl)oxy)naphthalen-1-yl)acetamide]	6.90
Cc1cc(S(=O)(=O)Nc2cccc3c(Oc4ncccc4-c4ccnc(N[C@H]5CCCNC5)n4)c(C)ccc23)sn1 [Example 168, (S)-3-Methyl-N-(6-methyl-5-((3-(2-(piperidin-3-ylamino)pyrimidin-4-yl)pyridin-2-yl)oxy)naphthalen-1-yl)isothiazole-5-sulfonamide]	6.76
Cc1ccc2c(NC(=O)[C@H]3CCC(C)C3)cccc2c1Oc1ncccc1-c1ccnc(N[C@H]2CCCNC2)n1 (single isomer, unassigned) [Example 278]	6.50
Cc1ccc2c(NC(=O)c3cn(C)cn3)cccc2c1Oc1ncccc1-c1ccnc(N[C@H]2CCCNC2)n1 [Example 176, (S)-1-Methyl-N-(6-methyl-5-((3-(2-(piperidin-3-ylamino)pyrimidin-4-yl)pyridin-2-yl)oxy)naphthalen-1-yl)-1H-imidazole-4-carboxamide]	6.43
Cc1ccc2c(NC(=O)[C@H]3CC3(F)F)cccc2c1Oc1ncccc1-c1ccnc(N[C@H]2CCCNC2)n1 (single isomer, unassigned) [Example 179]	7.12
Cc1nc(CNc2cccc3c(Oc4ncccc4-c4ccnc(N[C@H]5CCCNC5)n4)c(C)ccc23)c(C)s1 [Example 294, (S)-4-(2-((5-(((2,5-Dimethylthiazol-4-yl)methyl)amino)-2-methylnaphthalen-1-yl)oxy)pyridin-3-yl)-N-(piperidin-3-yl)pyrimidin-2-amine]	6.62
Cc1ccc2c(NC(=O)C3(C(F)(F)F)CC3)cccc2c1Oc1ncccc1-c1ccnc(N[C@H]2CCCNC2)n1 [Example 220, (S)—N-(6-Methyl-5-(3-(2-(piperidin-3-ylamino)pyrimidin-4-yl)pyridin-2-yloxy)naphthalen-1-yl)-1-(trifluoromethyl)cyclopropanecarboxamide]	6.51
Cc1ccc2c(NS(=O)(=O)Cc3ccccc3Cl)c(F)ccc2c1Oc1ncccc1-c1ccnc(N[C@H]2CCCNC2)n1 [Example 102, (S)-1-(2-Chlorophenyl)-N-(2-fluoro-6-methyl-5-((3-(2-(piperidin-3-ylamino)pyrimidin-4-yl)pyridin-2-yl)oxy)naphthalen-1-yl)methanesulfonamide]	8.34
Cc1ccc2c(-n3nccc3C)cccc2c1Oc1ccccc1-c1ccnc(N[C@H]2CCCNC2)n1 [Example 246, (S)-4-(2-((2-Methyl-5-(5-methyl-1H-pyrazol-1-yl)naphthalen-1-yl)oxy)phenyl)-N-(piperidin-3-yl)pyrimidin-2-amine]	6.63
CO[C@H]1CNC[C@@H](Nc2nccc(-c3cccnc3Oc3c(C)ccc4c(NS(=O)(=O)Cc5ccc(Cl)cc5)cccc34)n2)C1 (single isomer, unassigned) [Example 205]	6.89
Cc1ccc2c(NCCC(F)(F)F)cccc2c1Oc1ncccc1-c1ccnc(N[C@H]2CCCNC2)n1 [Example 348, (S)-4-(2-((2-Methyl-5-((3,3,3-trifluoropropyl)amino)naphthalen-1-yl)oxy)pyridin-3-yl)-N-(piperidin-3-yl)pyrimidin-2-amine]	7.10
Cc1ccc2c(NCCC(C)(C)C#N)cccc2c1Oc1ncccc1-c1ccnc(N[C@H]2CCCNC2)n1 [Example 347, (S)-2,2-Dimethyl-4-((6-methyl-5-((3-(2-(piperidin-3-ylamino)pyrimidin-4-yl)pyridin-2-yl)oxy)naphthalen-1-yl)amino)butanenitrile]	7.32
Cc1ccc2c(NC(=O)[C@H]3CC34CC4)c(F)ccc2c1Oc1ncccc1-c1ccnc(N[C@H]2CCCNC2)n1 (single isomer, unassigned) [Example 379]	6.55
Cc1ccc2c(NC(=O)C3CCCCC3)cccc2c1Oc1ncccc1-c1ccnc(N[C@H]2CCCNC2)n1 [Example 190, (S)—N-(6-Methyl-5-((3-(2-(piperidin-3-ylamino)pyrimidin-4-yl)pyridin-2-yl)oxy)naphthalen-1-yl)cyclohexanecarboxamide]	6.56
Cc1ccc2c(NS(=O)(=O)C3CC3)cccc2c1Oc1ncccc1-c1ccnc(N[C@H]2CCCNC2)n1 [Example 105, (S)—N-(6-Methyl-5-((3-(2-(piperidin-3-ylamino)pyrimidin-4-yl)pyridin-2-yl)oxy)naphthalen-1-yl)cyclopropanesulfonamide hydrochloride]	6.31
Cc1ccc2c(NS(=O)(=O)[C@H](C)c3ccccc3)cccc2c1Oc1ncccc1-c1ccnc(N[C@H]2CCCNC2)n1 [Example 215, (R)—N-(6-methyl-5-((3-(2-((S)-piperidin-3-ylamino)pyrimidin-4-yl)pyridin-2-yl)oxy)naphthalen-1-yl)-1-phenylethanesulfonamide]	6.68
Cc1ccc2c(NC(=O)C3CC3C(F)(F)F)cccc2c1Oc1ncccc1-c1ccnc(N[C@H]2CCCNC2)n1 (single isomer, unassigned) [Example 227]	6.31

Same assay, conditions: Table 2; read-out: XBP1s-luc 293 LUC (IC50)

SMILES	pIC50
Cc1ccc2c(NCC(=O)C3CC3)cccc2c1Oc1ncccc1-c1ccnc(N[C@H]2CCCNC2)n1 [Example 459, (S)-1-Cyclopropyl-2-((6-methyl-5-((3-(2-(piperidin-3-ylamino)pyrimidin-4-yl)pyridin-2-yl)oxy)naphthalen-1-yl)amino)ethanone hydrochloride]	6.51
Cc1ccc2c(NS(=O)(=O)Cc3ccccc3C#N)c(F)ccc2c1Oc1ncccc1-c1ccnc(N[C@H]2CCCNC2)n1 [Example 434, (S)-1-(2-Cyanophenyl)-N-(2-fluoro-6-methyl-5-((3-(2-(piperidin-3-ylamino)pyrimidin-4-yl)pyridin-2-yl)oxy)naphthalen-1-yl)methanesulfonamide hydrochloride]	8.22
Cc1ccc2c(NS(=O)(=O)N(C)CCC(F)(F)F)c(F)ccc2c1Oc1ncccc1-c1ccnc(N[C@H]2CCCNC2)n1 [Example 441, 4-[2-[[6-Fluoro-2-methyl-5-[[methyl(3,3,3-trifluoropropyl)sulfamoyl]amino]-1-naphthyl]oxy]-3-pyridyl]-2-[[(3S)-3-piperidyl]amino]pyrimidine hydrochloride]	7.32
Cc1cc(CS(=O)(=O)Nc2c(F)ccc3c(Oc4ncccc4-c4ccnc(N[C@H]5CCCNC5)n4)c(C)ccc23)no1 [Example 412, (S)—N-(2-Fluoro-6-methyl-5-((3-(2-(piperidin-3-ylamino)pyrimidin-4-yl)pyridin-2-yl)oxy)naphthalen-1-yl)-1-(5-methylisoxazol-3-yl)methanesulfonamide hydrochloride]	8.15
Cc1ccc2c(NC[C@@H](O)C(F)F)cccc2c1Oc1ncccc1-c1ccnc(N[C@H]2CCCNC2)n1 (single isomer, unassigned) [Example 476, hydrochloride]	6.89
Cc1ccc2c(NS(=O)(=O)C[C@H]3CCC3(F)F)c(F)ccc2c1Oc1ncccc1-c1ccnc(N[C@H]2CCCNC2)n1 (single isomer, unassigned) [Example 471, hydrochloride]	7.77
